This is an account of results in patent publication US12427163B2, “Anti-VTCN1 antibodies and antibody drug conjugates” (Bluefin BioMedicine, Inc., priority 2017, dated 2025).

One experiment deals with 4T1 tumors. Put plainly: 4T1 mouse triple negative breast cancer model in Balb/C mice. In kind it is in vivo. Here is the method:
6-8 week-old Balb/C mice were injected with 0.1 million of 4T1 cells in the mammary fat pad. On day 5, mice were randomized to 4 treatment groups, PBS, 6D9 (10 mg/kg), Gemcitabine (75 mg/kg), and 6D9 (10 mg/kg) plus gemcitabine (75 mg/kg). All treatments were by intraperitoneal injection and mice received a total of 5 treatments on days 5, 8, 12, 14, and 16.
The tumors and lymph nodes were harvested from these mice, and cells were dissociated and subjected to immune cell profiling by flow cytometry analysis.

A further experiment relates to human monocytes. The experiment is described as follows: Cytokine treatment of monocytes, expression of VTCN1, PD-L1, CD80 by flow cytometry. The following applies: 24, 48, or 73 hours. It counts as cell-based. Here is the method: VTCN1 is expressed in monocytes and macrophages in a tumor microenviroment, the expression induced by cytokines in tumor microenviroment. VTCN1 positive macrophages inhibit T cell activation. Monocytes from healthy donors were treated with IFNγ and IL-6 to assess VTCN1 expression. Monocytes were enriched from fresh PBMC from healthy donor using a monocyte enrichment kit from Stemcell Technologies, and the purity of the obtained monocytes is greater than 95%. Monocytes were cultured in 24 well plate with different concentration of INFγ or LI-6 for 24, 48, or 73 hours, expression of VTCN1, PD-L1, and CD80 was assessed by flow cytometry. […] CD80 was expressed at low level in monocytes, and is not very responsive to cytokine treatment.

Turning to `Nc1ccn([C@@H]2O[C@H](CO)[C@@H](O)C2(F)F)c(=O)n1` [Gemcitabine, gemcitabine], the 4T1 tumor growth entry in the experiment with 4T1 tumors (6D9 10 mg/kg, gemcitabine 75 mg/kg, i.p., days 5, 8, 12, 14, 16) is “totally inhibited tumor growth at the early stage of the study with tumor regrowth after 30 days”. Moreover, the “tumor-free mice (complete response; CR) at end of study on day 65” value in the experiment with 4T1 tumors (mouse, in vivo) is recorded as “none of the mice in the gemcitabine alone group were tumor-free”. Take “IL6: cytokine added to human monocyte cultures”: the “VTCN1 and PD-L1 expression in monocytes” value in the experiment with human monocytes was “VTCN1 and PD-L1 expression was induced”.
